This is an account of results in US20030004126A1, “Formulations of adenosine A1 agonists” (priority 1999, published 2003).

One assay relates to rats. Put plainly: Nociceptive study using an algesymeter (normal nociceptive thresholds). Format: in vivo. The following applies: Compound A in combination with morphine, rat. How it is done:
(b) Nociceptive Study for 5′-Deoxy-5′-fluoro-N-(tetrahydro-pyran4-yl)-adenosine (Adenosine A1 Agonist) and morphine
Nociception studies were carried out using an algesymeter (Randal, L et. al ([…]). Arch. Int. Pharmacodyn., 61 409-419. Variations in the rats normal nociceptive thresholds were studied.

A further assay deals with Male Random Hooded rats. Put plainly: Carrageenan model: carrageenan-induced decrease in weight bearing (allodynia) and paw oedema. The assay is classed as in vivo. Particulars: Compound A orally, dosed with morphine subcutaneously; rat, 3 hours after intraplantar 2% carrageenan; dual channel weight averager. How it is done: (a) Carrageenan Model for 5′-Deoxy-5′-fluoro-N-(tetrahydro-pyran-4-yl)-adenosine (Adenosine A1 Agonist) and Morphine
Male Random Hooded rats (180-220 g) were used. The test compound or vehicle was administered 30 mins before the 2nd test compound or vehicle. The test compounds and vehicles used were: (i) Compound A in 0.25% methyl cellulose and (ii) Morphine was made up in saline. Compound A was administered orally. Morphine was administered subcutaneously. After a further 30 mins 100 ul of 2% carrageenan was injected intraplantar into the left hind paw and the animals were then returned to their cages. Three hours later behavioural testing of the carrageenan-induced decrease in weight on the inflamed left hind paw (% weight on the inflammed left hind paw) and associated oedema was assessed. Weight bearing was measured using the dual channel weight averager and paw oedema was assessed using a plethysmometer. The dual channel weight averager is commercially available and is described in the following abstract: Validation of the dual channel weight averager as an instrument for the measurement of inflammatory pain, N. M. Clayton et al., 1997 British Journal Pharmacol. 120, 219P
Note: In the absense of pain, weight on the hind paws would be evenly distributed, i.e. 50% on each hind paw. […]

Consider `O[C@@H]1[C@H](O)[C@@H](CF)O[C@H]1n1cnc2c(NC3CCOCC3)ncnc21` [5′-Deoxy-5′-fluoro-N-(tetrahydro-pyran-4-yl)-adenosine], for which the “effect on normal nociceptive levels (nociceptive threshold)” value in the assay on rats is recorded as “significantly increased the normal nociceptive levels of the rat producing at least an additive if not synergistic effect”. Moreover, the “effect against the carrageenan-induced decrease in weight bearing” value with Male Random Hooded rats is “at least an additive effect”.
